{"source": "PubChem BioAssay (NCI)", "assay_in_all_cases": "growth of human tumour cells (NCI), 48 h", "key": {"[1]": {"test_system": "UO-31 renal"}, "[2]": {"test_system": "DLD-1 colon"}, "[3]": {"test_system": "EKVX NSCLC"}, "[4]": {"test_system": "HOP-92 NSCLC"}, "[5]": {"test_system": "KM20L2 colon"}, "[6]": {"test_system": "HOP-62 NSCLC"}, "[7]": {"test_system": "OVCAR-4 ovarian"}, "[8]": {"test_system": "HCC-2998 colon"}, "[9]": {"test_system": "RPMI-8226 leukemia"}, "[10]": {"test_system": "NCI/ADR-RES ovarian"}}, "note": "“And” between values parts separate entries of the source, which are not always exact repeats. Identical values can stand only once.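 Compound exposure: 48 hours, 5 concentrations, 96-well plates. The concentration for 50% growth inhibition is given as GI50. TGI is the concentration that stops growth completely.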"}
{"smiles": "CCC[CH2][Sn]([CH2]CCC)([O]C(=O)c1cc(F)ccc1F)[O][Sn]([CH2]CCC)([CH2]CCC)[O]C(=O)c1cc(F)ccc1F", "values": [{"measurement": "GI50", "setting": "[1]", "value": 540, "unit": "nM"}, {"measurement": "TGI", "setting": "[1]", "value": 1780, "unit": "nM"}, {"measurement": "GI50", "setting": "[2]", "value": 206, "unit": "nM"}, {"measurement": "TGI", "setting": "[2]", "value": 974, "unit": "nM"}, {"measurement": "GI50", "setting": "[3]", "value": 690, "unit": "nM"}, {"measurement": "TGI", "setting": "[3]", "value": 2110, "unit": "nM"}, {"measurement": "GI50", "setting": "[4]", "value": 148, "unit": "nM"}, {"measurement": "TGI", "setting": "[4]", "value": 491, "unit": "nM"}, {"measurement": "GI50", "setting": "[5]", "value": 779, "unit": "nM"}, {"measurement": "TGI", "setting": "[5]", "value": 2110, "unit": "nM"}, {"measurement": "GI50", "setting": "[6]", "value": 1840, "unit": "nM"}, {"measurement": "TGI", "setting": "[6]", "value": 3270, "unit": "nM"}, {"measurement": "GI50", "setting": "[7]", "value": 513, "unit": "nM"}, {"measurement": "TGI", "setting": "[7]", "value": 1730, "unit": "nM"}, {"measurement": "GI50", "setting": "[8]", "value": 669, "unit": "nM"}, {"measurement": "TGI", "setting": "[8]", "value": 1920, "unit": "nM"}, {"measurement": "GI50", "setting": "[9]", "value": 91.6, "unit": "nM"}, {"measurement": "TGI", "setting": "[9]", "value": "> 100000", "unit": "nM"}, {"measurement": "GI50", "setting": "[10]", "value": 522, "unit": "nM"}, {"measurement": "TGI", "setting": "[10]", "value": 1880, "unit": "nM"}]}
{"smiles": "CC(=O)O[C@@]12CO[C@@H]1C[C@H](O)[C@@]1(C)C(=O)[C@H](O)C3=C(C)[C@@H](OC(=O)[C@H](O)[C@@H](NC(=O)OC(C)(C)C)c4ccccc4)C[C@@](O)([C@@H](OC(=O)c4ccccc4)[C@H]21)C3(C)C", "values": [{"measurement": "GI50", "setting": "[1]", "value": 247, "unit": "nM"}, {"measurement": "TGI", "setting": "[1]", "value": 18000, "unit": "nM"}, {"measurement": "GI50", "setting": "[2]", "value": "35.2 nM and 33.8 nM"}, {"measurement": "TGI", "setting": "[2]", "value": "> 75400", "unit": "nM"}, {"measurement": "GI50", "setting": "[3]", "value": 46.4, "unit": "nM"}, {"measurement": "TGI", "setting": "[4]", "value": 59400, "unit": "nM"}, {"measurement": "GI50", "setting": "[5]", "value": 8.18, "unit": "nM"}, {"measurement": "TGI", "setting": "[5]", "value": 22, "unit": "nM"}, {"measurement": "GI50", "setting": "[6]", "value": "84.4 nM and 42.8 nM"}, {"measurement": "TGI", "setting": "[6]", "value": 3780, "unit": "nM"}, {"measurement": "TGI", "setting": "[7]", "value": 76100, "unit": "nM"}, {"measurement": "GI50", "setting": "[8]", "value": 18.2, "unit": "nM"}, {"measurement": "GI50", "setting": "[9]", "value": "5.7 nM and 3.74 nM"}, {"measurement": "TGI", "setting": "[9]", "value": 15600, "unit": "nM"}, {"measurement": "GI50", "setting": "[10]", "value": 680, "unit": "nM"}, {"measurement": "TGI", "setting": "[10]", "value": 9760, "unit": "nM"}]}
